Laboratory results from paper PMC8169660, “Flavin-dependent halogenases catalyze enantioselective olefin halocyclization” (Nature Communications, 2021).

Biological target: T1, RebH variant 4V + S (Lentzea aerocolonigenes, UniProt Q8KHZ8, F111S/N470S, form not given)
T1 construct: evolved RebH variant 4V + S; pET28b in E. coli BL21(DE3) + pGro7, Ni-NTA purified (His-tagged)
Assay: initial rates of bromolactonization, product 1a by UPLC
Type: biochemical
Conditions: NaBr (5 eq), NAD and FAD 100 uM, MBP-RebF 2.5 uM, glucose dehydrogenase, glucose 20 mM; 4V + S 20 uM; room temperature

T1 sequence (Q8KHZ8 whole entry F111S/N470S, form open): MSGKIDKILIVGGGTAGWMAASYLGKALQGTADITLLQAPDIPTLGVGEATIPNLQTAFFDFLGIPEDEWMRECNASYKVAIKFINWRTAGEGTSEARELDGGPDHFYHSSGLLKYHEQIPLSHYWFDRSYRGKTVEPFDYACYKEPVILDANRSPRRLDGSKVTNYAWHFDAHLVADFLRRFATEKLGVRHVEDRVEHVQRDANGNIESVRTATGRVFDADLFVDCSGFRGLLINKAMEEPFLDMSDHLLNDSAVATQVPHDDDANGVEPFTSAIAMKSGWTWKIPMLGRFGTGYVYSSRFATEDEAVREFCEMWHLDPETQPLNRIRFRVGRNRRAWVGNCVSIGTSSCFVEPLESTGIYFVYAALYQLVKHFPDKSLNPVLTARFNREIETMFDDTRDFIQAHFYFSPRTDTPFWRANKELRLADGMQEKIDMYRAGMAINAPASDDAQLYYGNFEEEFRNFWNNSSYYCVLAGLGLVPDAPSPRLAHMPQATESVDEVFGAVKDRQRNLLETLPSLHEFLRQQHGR

SMILES: C=C(CCC(=O)O)c1ccc(OC)cc1 [compound 1, 4-methoxyphenyl-4-pentenoic acid]
- Km: 470 µM
